Test results from patent US20100239568A1, “DIAGNOSTICS AND TREATMENTS FOR TUMORS” (GENENTECH, INC., priority 2006, published 2010).

Key:
[1] = tested on: B16F1 tumors; assay: Tumor growth of B16F1 tumors in mice; assay type: in vivo, mouse; conditions: B16F1 in C57BL/6; compared to anti-VEGF treatment; day 17
Experimental: (§1) Cell Lines. The EL4, LLC, B16F1 and TIB6 (J558) tumor cell lines were obtained from American Type Culture Collection (ATCC) and maintained in tissue culture in high glucose Dulbecco's Modified Medium (DMEM) and supplemented with 10% fetal bovine serum (FBS) and 2 mM glutamine. The terms “B16F1” and “B16” are used interchangeably herein to refer to the same melanoma cell line.
(§2) Antibodies. Anti-VEGF, such as G6-23, is an antibody that binds to and neutralizes murine and human forms of VEGF. Derived from phage display technology, the IgG portion comprised murine isotype IgG2a (see, e.g., Malik, A. K. et al. Redundant roles of VEGF-B and P1GF during selective VEGF-A blockade in mice. Blood 107:550-7 (2006)) and was dosed at 10 mg/kg, IP, twice weekly unless indicated otherwise. Isotype-matched control antibody was anti-human ragweed-IgG2a (Genentech, Inc.). Anti-CD11b+ antibody (eBioSciences), anti-L-selectin (BD BioSciences) and anti-CXCR4 (Torrey Pines Lab) were used in FACS experiments. […] Tumor measurement was performed twice/week and terminal tumor weights were determined as described above. […]
(§3) B16F1 admixing experiments. […] Tumor size was assessed using Vernier calipers 2-3 times per week after tumors reached a palpable size. Tumor volume was determined using the Pi/6×L×W×W formula with L as the longest diameter and W the diameter at the position perpendicular to L. […]

[2] = tested on: EL4 tumors; assay: Tumor growth of EL4 tumors in mice; assay type: in vivo, mouse; conditions: EL4 in C57BL/6; 5FU 50 mg/kg once a week, Gemcitabine 120 mg/kg twice a week, IP; day 17
Experimental: as §1, §2, §3

[3] = tested on: LLC tumors; assay: Tumor growth of LLC tumors in mice; assay type: in vivo, mouse; conditions: LLC in C57BL/6; 5FU 50 mg/kg once a week, Gemcitabine 120 mg/kg twice a week, IP; day 17
Experimental: as §1, §2, §3

[4] = tested on: TIB6 tumors; assay: Tumor growth of TIB6 tumors in mice; assay type: in vivo, mouse; conditions: TIB6 in C57BL/6; 5FU 50 mg/kg once a week, Gemcitabine 120 mg/kg twice a week, IP; day 17
Experimental: as §1
Antibodies. Anti-VEGF, such as G6-23, is an antibody that binds to and neutralizes murine and human forms of VEGF. Derived from phage display technology, the IgG portion comprised murine isotype IgG2a (see, e.g., Malik, A. K. et al. Redundant roles of VEGF-B and P1GF during selective VEGF-A blockade in mice. Blood 107:550-7 (2006)) and was dosed at 10 mg/kg, IP, twice weekly unless indicated otherwise. Isotype-matched control antibody was anti-human ragweed-IgG2a (Genentech, Inc.). […] Tumor measurement was performed twice/week and terminal tumor weights were determined as described above.
B16F1 admixing experiments. […] Tumor size was assessed using Vernier calipers 2-3 times per week after tumors reached a palpable size. Tumor volume was determined using the Pi/6×L×W×W formula with L as the longest diameter and W the diameter at the position perpendicular to L.
Chemotherapy. […] Tumor volume was measured twice a week and was calculated as described.

[5] = tested on: CD11b+Gr1+ cells; assay: Flow cytometry of myeloid cells in tumor, bone marrow and peripheral blood of treated mice; assay type: in vivo, mouse; conditions: for CD11b+Gr1+ cells in B16F1 tumors after chemotherapy: tumor isolates after 17 days
Experimental: Flow cytometry. Tumors of control and anti-VEGF-treated mice were isolated and single cell suspension was generated by chopping of tumor tissues followed by treatment with a cell homogenizer (VWR). BMMNCs were flushed from femur and tibia of implated animals and underwent RBC lysis using ACK lysis buffer (Cambrex, Mass.). Peripheral blood was collected by retro-orbital bleed and 40 μl of peripheral blood was pre-treated with ACK buffer for red blood cells lysis.
Cells from BM, tumor or peripheral blood were stained with a series of monoclonal antibodies including, CD11b, Gr1, CD19, CD90, VEGFR2, CXCR4, L-Selectin2 (all from BD BioSciences, CA), VEGFR1 (R&D, CA), Tie2 (eBioSciences, CA) along with appropriate isotype control to investigate the myeloid and lymphoid fractions in each compartment. FACS data were acquired on FACS calibur and analyzed by Cell Quest Pro software (BD Biosciences).
To isolate GFP+ cells and/or CD11b+Gr1+, single cell suspension was provided from the bone marrow or tumors of implanted mice. Cells and were stained with anti-CD11b conjugated to APC and anti-Gr1 conjugated to PE. Populations of GFP, GFP−, CD11b+Gr1+ and CD11b−Gr1− cells were isolated in a FACS Vantage machine and post-sort analysis ensured the purity of the population of interest in each compartment.

[6] = tested on: EL4 tumors; assay: In vivo treatment with clodronate liposomes and anti-VEGF, EL4 tumor volume; design: species or system mouse; conditions: mice bearing resistant tumors
Experimental: In vivo treatment to examine for macrophage depletion and tumor expression: EL4, the murine lymphocyte leukemia cell line, was used. Treatment was started 48 hours after implanting EL4 tumor cells (5×10^6, 0.1 ml vol. in matrigel) in nude mice. Treatment was as follows: Group 1: 8 mice, twice a week PBS-liposome 200 μl IV and Ragweed IgG 2×5 mg/kg/week 100 μl ip.; Group 2: 8 mice, twice a Week: PBS-liposome 200 μl IV and G6-31 2×5 mg/kg/week 100 μl ip.; Group 3: 8 mice, twice a week: Clodronate-liposome 200 μl IV. Ragweed IgG 2×5 mg/kg/week 100 μl ip.; Group 4: 8 mice twice a week: Clodronate-liposome 200 μl IV. G6-31 2×5 mg/kg/week 100 μl ip. Group 5: 8 mice twice a week: Clodronate-liposome 200 μl Iv. PBS twice a week 100 μl ip. 3 mice of each group were pre-bled for 50 μl of whole blood for FACS macrophage cell population evaluation. 3 mice of each group were bled (optical) for 100 μl of whole blood at 1 hour after each PBS-liposome or Clodronate-liposome injection for FACS analysis. The study continued until sufficient tumor growth (not beyond 5 weeks). Tumor growth was defined as sufficient if a tumor was greater than 20 mm in length. Tumor size was measured weekly (1×w×h). […] At the endpoint of the experiment the animals were sacrificed, the tumors, measured one final time then extracted, weighed and then fixed. […]

[7] = tested on: HUVEC cells; assay: Angiogenic sprouting and capillary lumen formation assay; assay type: cell-based, human; conditions: 1.25 μg/ml with D551 fibroblasts, day 10
Experimental: See FIG. 13, Panel A and Pane B on day 10. In the assays, HUVEC cells were thawed at low passage number a day before the cells were coated on beads. The cells were detached at about 80% confluency and coated on cytodex microbeads (a cross-linked dextran matrix) with HUVEC (400 cells/bead) for 4 hours at 37° C. Beads and free HUVEC cells were transferred to a flask and cultured overnight. The beads were detached and they were mixed with fibrinogen (bovine plasma) (250 μg/ml). Fibrinogen was then converted to insoluble fibrin gel by adding thrombin. There are about 100 beads/12-well plate. The beads were cultured with 40,000 D551 fibroblasts and VEGF as positive controls, D551 or VEGF as negative controls, MCP-1 and D551, or MIP-1alpha and D551. The media was changed everyday. The cultures were stained with biotinylated anti-human CD31 and Cy3 streptavidin overnight with extensive washes. Pictures were taken at 60 hours, 6 days and 10 days.

[8] = tested on: xenograft models; conditions: most xenograft models tested; cited from earlier work
[9] = tested on: human cancers, including renal and ovarian carcinomas; conditions: clinical evaluation; cited from earlier work

Row | Molecule | tumor response to chemotherapy (tumor volume) [1] | tumor response to chemotherapy (tumor volume) [2] | tumor response to chemotherapy (tumor volume) [3] | tumor response to chemotherapy (tumor volume) [4] | CD11b+Gr1+ cells in B16F1 tumors after chemotherapy [5] | angiogenic activity (sprouting and capillary lumen formation) [7] | further results
1 | O=c1[nH]cc(F)c(=O)[nH]1 [5FU, 5-Fluorouracil] | resistance | complete response | complete response | completely sensitive | lack of CD11b+Gr1+ cells |  | BM CD11b+Gr1+ cells after chemotherapy ([5]; bone marrow, all tumor types): complete exhaustion
2 | Nc1ccn([C@@H]2O[C@H](CO)[C@@H](O)C2(F)F)c(=O)n1 [Gemcitabine] | resistance | partial resistance | partial resistance | completely sensitive | lack of CD11b+Gr1+ cells |  | 
3 | O=P(O)(O)C(Cl)(Cl)P(=O)(O)O [clodronate] |  |  |  |  |  |  | efficacy of anti-VEGF treatment after depletion of TAMs [6]: improved
4 | MCP-1: monocyte chemoattractant protein-1 |  |  |  |  |  | angiogenic activity | 
5 | bevacizumab: humanized anti-VEGF monoclonal antibody |  |  |  |  |  |  | tumor growth and tumor angiogenesis [8]: significantly inhibited tumor growth and reduced tumor angiogenesis; single-agent activity [9]: significant single-agent activity
6 | MIP-1alpha: macrophage inflammatory protein-1a (protein, UniProt P10147 24-92, looked up) C-C motif chemokine 3: SLAADTPTACCFSYTSRQIPQNFIADYFETSSQCSKPGVIFLTKRSRQVCADPSEEWVQKYVSDLELSA |  |  |  |  |  | angiogenic activity | 
